Experimental data taken from patent US9416127B2, “Triazole carboxamides and uses thereof” (Hoffmann-La Roche Inc., priority 2012, dated 2016).
Counter-ions that a name gives are not always drawn.

Columns and labels:
rat TAAR1 = rat TAAR1 (Rattus norvegicus (Rat), UniProt Q923Y9); assay: Radioligand binding assay on rat TAAR1; conditions: rat TAAR1, HEK-293 membranes; second value of mouse/rat cell
Protocol: (§1) Construction of TAAR Expression Plasmids and Stably Transfected Cell Lines
(§2) For the construction of expression plasmids the coding sequences of human, rat and mouse TAAR 1 were amplified from genomic DNA essentially as described by Lindemann et al.. The Expand High Fidelity PCR System (Roche Diagnostics) was used with 1.5 mM Mg^2+ and purified PCR products were cloned into pCR2.1-TOPO cloning vector (Invitrogen) following the instructions of the manufacturer. PCR products were subcloned into the pIRESneo2 vector (BD Clontech, Palo Alto, Calif.), and expression vectors were sequence verified before introduction in cell lines.
(§3) HEK293 cells (ATCC # CRL-1573) were cultured essentially as described by Lindemann et al. (2005). For the generation of stably transfected cell lines HEK293 cells were transfected with the pIRESneo2 expression plasmids containing the TAAR coding sequences (described above) with Lipofectamine 2000 (Invitrogen) according to the instructions of the manufacturer, and 24 hrs post transfection the culture medium was supplemented with 1 mg/ml G418 (Sigma, Buchs, Switzerland). After a culture period of about 10 d clones were isolated, expanded and tested for responsiveness to trace amines (all compounds purchased from Sigma) with the cAMP Biotrak Enzyme immunoassay (EIA) System (Amersham) following the non-acetylation EIA procedure provided by the manufacturer.
Radioligand Binding Assay on Rat TAAR1
(§4) Membrane Preparation and Radioligand Binding.
(§5) HEK-293 cells stably expressing rat TAAR1 were maintained at 37° C. and 5% CO2 in DMEM high glucose medium, containing fetal calf serum (10%, heat inactivated for 30 min at 56° C.), penicillin/streptomycin (1%), and 375 μg/ml geneticin (Gibco). Cells were released from culture flasks using trypsin/EDTA, harvested, washed twice with ice-cold PBS (without Ca^2+ and Mg^2+), pelleted at 1'000 rpm for 5 min at 4° C., frozen and stored at −80° C. Frozen pellets were suspended in 20 ml HEPES-NaOH (20 mM, pH 7.4) containing 10 mM EDTA and homogenized with a Polytron (PT 6000, Kinematica) at 14'000 rpm for 20 s. The homogenate was centrifuged at 48'000×g for 30 min at 4° C. Subsequently, the supernatant was removed and discarded, and the pellet resuspended in 20 ml HEPES-NaOH (20 mM, pH 7.4) containing 0.1 mM EDTA using the Polytron (20 s at 14'000 rpm). This procedure was repeated and the final pellet resuspended in HEPES-NaOH containing 0.1 mM EDTA and homogenized using the Polytron. Typically, aliquots of 2 ml membrane portions were stored at −80° C. With each new membrane batch the dissociation constant (Kd) was determined via a saturation curve. […] Nonspecific binding was defined as the amount of ^3[H]—(S)-4-[(ethyl-phenyl-amino)-methyl]-4,5-dihydro-oxazol-2-ylamine bound in the presence of 10 μM unlabeled ligand. All compounds were tested at a broad range of concentrations (10 μM to 10 μM) in duplicates. […] The 96 deep well plates were incubated for 1 hr at 4° C. Incubations were terminated by rapid filtration through Unifilter-96 plates (Packard Instrument Company) and glass filters GF/C (Perkin Elmer) presoaked for 1 hr in polyethylenimine (0.3%) and washed 3 times with 1 ml of cold binding buffer. After addition of 45 μl of Microscint 40 (PerkinElmer) the Unifilter-96 plate was sealed and after 1 hr the ratioactivity counted using a TopCount Microplate Scintillation Counter (Packard Instrument Company).

mouse TAAR1 = mouse TAAR1 (Mus musculus (Mouse), UniProt Q923Y8); assay: Radioligand binding assay on mouse TAAR1; conditions: mouse TAAR1, HEK-293 membranes; first value of mouse/rat cell
Chain of mouse TAAR1 (Q923Y8 whole entry): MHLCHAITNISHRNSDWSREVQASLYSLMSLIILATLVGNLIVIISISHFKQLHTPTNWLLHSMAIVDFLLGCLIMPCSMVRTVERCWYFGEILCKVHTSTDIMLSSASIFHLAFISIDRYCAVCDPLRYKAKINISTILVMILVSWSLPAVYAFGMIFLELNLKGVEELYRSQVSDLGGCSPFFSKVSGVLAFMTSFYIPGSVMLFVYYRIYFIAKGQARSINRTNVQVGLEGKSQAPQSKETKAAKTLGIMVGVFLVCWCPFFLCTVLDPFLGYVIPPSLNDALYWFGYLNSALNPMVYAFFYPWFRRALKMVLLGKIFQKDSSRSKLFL
Protocol: as §1, §2, §3
Radioligand Binding Assay on Mouse TAAR1
as §4
as §5, with “expressing mouse” for “expressing rat”, “(10 pM” for “(10 μM”

Chain of rat TAAR1 (Q923Y9 whole entry): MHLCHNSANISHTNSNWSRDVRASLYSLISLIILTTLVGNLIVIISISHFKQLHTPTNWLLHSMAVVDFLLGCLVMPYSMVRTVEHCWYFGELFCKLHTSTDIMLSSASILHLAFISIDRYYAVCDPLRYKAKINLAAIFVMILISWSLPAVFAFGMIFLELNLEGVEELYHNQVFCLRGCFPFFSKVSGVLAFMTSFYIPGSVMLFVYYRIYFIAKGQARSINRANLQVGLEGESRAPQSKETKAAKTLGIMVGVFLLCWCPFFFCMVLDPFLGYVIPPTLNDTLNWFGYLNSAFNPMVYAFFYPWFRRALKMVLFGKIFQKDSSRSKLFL

Structure (SMILES): O=C(Nc1ccc(C2CCNC2)cc1)c1cn(-c2ccc(OC(F)F)cc2)nn1 (racemic) [Example 33, (RS)-1-(4-(Difluoromethoxy)phenyl)-N-(4-(pyrrolidin-3-yl)phenyl)-1H-1,2,3-triazole-4-carboxamide]
- Ki (rat TAAR1): 0.0189 µM
- Ki (mouse TAAR1): 0.0049 µM

Structure (SMILES): O=C(Nc1ccc(C2CCNC2)cc1)c1cnn(-c2ccccc2)n1 (racemic) [Example 34, (RS)-2-Phenyl-N-(4-(pyrrolidin-3-yl)phenyl)-2H-1,2,3-triazole-4-carboxamide]
- Ki (rat TAAR1): 0.001 µM
- Ki (mouse TAAR1): 0.0032 µM

Structure (SMILES): O=C(Nc1ccc(C2CCCNC2)cc1)c1cnn(-c2ccccc2)n1 (racemic) [Example 35, (RS)-2-Phenyl-N-(4-(piperidin-3-yl)phenyl)-2H-1,2,3-triazole-4-carboxamide]
- Ki (rat TAAR1): 0.0017 µM

Structure (SMILES): O=C(Nc1ccc([C@H]2CNCCO2)cc1)c1cnn(-c2ccccc2)n1 [Example 1, (S)—N-(4-(Morpholin-2-yl)phenyl)-2-phenyl-2H-1,2,3-triazole-4-carboxamide hydrochloride]
- Ki (rat TAAR1): 0.0013 µM
- Ki (mouse TAAR1): 0.0012 µM

Structure (SMILES): Cc1nn(-c2ccccc2)nc1C(=O)Nc1ccc([C@H]2CNCCO2)cc1 [Example 2, (S)-5-Methyl-N-(4-(morpholin-2-yl)phenyl)-2-phenyl-2H-1,2,3-triazole-4-carboxamide hydrochloride]
- Ki (rat TAAR1): 0.0008 µM
- Ki (mouse TAAR1): 0.0015 µM

Structure (SMILES): O=C(Nc1ccc([C@H]2CNCCO2)cc1)c1cnn(-c2ccc(Cl)cc2)n1 [Example 6, (S)-2-(4-Chlorophenyl)-N-(4-(morpholin-2-yl)phenyl)-2H-1,2,3-triazole-4-carboxamide hydrochloride]
- Ki (rat TAAR1): 0.0002 µM
- Ki (mouse TAAR1): 0.0004 µM

Structure (SMILES): Cc1nn(-c2ccccc2)nc1C(=O)Nc1ccc([C@@H]2CNCCO2)cc1 [Example 7, (R)-5-Methyl-N-(4-(morpholin-2-yl)phenyl)-2-phenyl-2H-1,2,3-triazole-4-carboxamide hydrochloride]
- Ki (rat TAAR1): 0.0002 µM
- Ki (mouse TAAR1): 0.0027 µM

Structure (SMILES): O=C(Nc1ccc([C@@H]2CNCCO2)cc1)c1cnn(-c2ccccc2)n1 [Example 8, (R)—N-(4-(Morpholin-2-yl)phenyl)-2-phenyl-2H-1,2,3-triazole-4-carboxamide hydrochloride]
- Ki (rat TAAR1): 0.0008 µM
- Ki (mouse TAAR1): 0.0014 µM

Structure (SMILES): O=C(Nc1ccc([C@H]2CNCCO2)cc1)c1cnn(-c2ccc(F)cc2)n1 [Example 9, (S)-2-(4-Fluorophenyl)-N-(4-(morpholin-2-yl)phenyl)-2H-1,2,3-triazole-4-carboxamide hydrochloride]
- Ki (rat TAAR1): 0.0006 µM
- Ki (mouse TAAR1): 0.0004 µM

Structure (SMILES): O=C(Nc1ccc([C@H]2CNCCO2)cc1)c1cnn(-c2ccc(C(F)(F)F)cc2)n1 [Example 10, (S)—N-(4-(Morpholin-2-yl)phenyl)-2-(4-(trifluoromethyl)phenyl)-2H-1,2,3-triazole-4-carboxamide hydrochloride]
- Ki (rat TAAR1): 0.0002 µM
- Ki (mouse TAAR1): 0.0004 µM

Structure (SMILES): O=C(Nc1ccc([C@H]2CNCCO2)cc1)c1cnn(-c2cccc(F)c2)n1 [Example 11, (S)-2-(3-Fluorophenyl)-N-(4-(morpholin-2-yl)phenyl)-2H-1,2,3-triazole-4-carboxamide hydrochloride]
- Ki (rat TAAR1): 0.0004 µM
- Ki (mouse TAAR1): 0.0003 µM

Structure (SMILES): O=C(Nc1ccc([C@H]2CNCCO2)cc1)c1cnn(-c2cccc(Cl)c2)n1 [Example 12, (S)-2-(3-Chlorophenyl)-N-(4-(morpholin-2-yl)phenyl)-2H-1,2,3-triazole-4-carboxamide hydrochloride]
- Ki (rat TAAR1): 0.0002 µM
- Ki (mouse TAAR1): 0.0002 µM

Structure (SMILES): O=C(Nc1ccc([C@H]2CNCCO2)cc1)c1cnn(-c2cccc(C(F)(F)F)c2)n1 [Example 13, (S)—N-(4-(Morpholin-2-yl)phenyl)-2-(3-(trifluoromethyl)phenyl)-2H-1,2,3-triazole-4-carboxamide hydrochloride]
- Ki (rat TAAR1): 0.0006 µM
- Ki (mouse TAAR1): 0.0003 µM

Structure (SMILES): O=C(Nc1ccc([C@H]2CNCCO2)cc1)c1cnn(-c2ccc(OC(F)(F)F)cc2)n1 [Example 15, (S)—N-(4-(Morpholin-2-yl)phenyl)-2-(4-(trifluoromethoxy)phenyl)-2H-1,2,3-triazole-4-carboxamide hydrochloride]
- Ki (rat TAAR1): 0.0001 µM
- Ki (mouse TAAR1): 0.0002 µM

Structure (SMILES): O=C(Nc1ccc([C@H]2CNCCO2)cc1)c1cnn(-c2ccc(OC(F)F)cc2)n1 [Example 16, (S)-2-(4-(Difluoromethoxy)phenyl)-N-(4-(morpholin-2-yl)phenyl)-2H-1,2,3-triazole-4-carboxamide hydrochloride]
- Ki (rat TAAR1): 0.0002 µM
- Ki (mouse TAAR1): 0.0003 µM

Structure (SMILES): Cc1ccc(-n2cc(C(=O)Nc3ccc([C@H]4CNCCO4)cc3)nn2)cc1 [Example 17, (S)—N-(4-(Morpholin-2-yl)phenyl)-1-p-tolyl-1H-1,2,3-triazole-4-carboxamide hydrochloride]
- Ki (rat TAAR1): 0.0174 µM
- Ki (mouse TAAR1): 0.0013 µM

Structure (SMILES): Cc1ccc(-n2ncc(C(=O)Nc3ccc([C@H]4CNCCO4)cc3)n2)cc1 [Example 18, (S)—N-(4-(Morpholin-2-yl)phenyl)-2-p-tolyl-2H-1,2,3-triazole-4-carboxamide hydrochloride]
- Ki (rat TAAR1): 0.0016 µM
- Ki (mouse TAAR1): 0.0007 µM

Structure (SMILES): COc1ccc(-n2cc(C(=O)Nc3ccc([C@H]4CNCCO4)cc3)nn2)cc1 [Example 19, (S)-1-(4-Methoxyphenyl)-N-(4-(morpholin-2-yl)phenyl)-1H-1,2,3-triazole-4-carboxamide hydrochloride]
- Ki (rat TAAR1): 0.0388 µM
- Ki (mouse TAAR1): 0.0016 µM

Structure (SMILES): COc1ccc(-n2ncc(C(=O)Nc3ccc([C@H]4CNCCO4)cc3)n2)cc1 [Example 20, (S)-2-(4-Methoxyphenyl)-N-(4-(morpholin-2-yl)phenyl)-2H-1,2,3-triazole-4-carboxamide hydrochloride]
- Ki (rat TAAR1): 0.0019 µM
- Ki (mouse TAAR1): 0.0014 µM

Structure (SMILES): CCOc1ccc(-n2cc(C(=O)Nc3ccc([C@H]4CNCCO4)cc3)nn2)cc1 [Example 21, (S)-1-(4-Ethoxyphenyl)-N-(4-(morpholin-2-yl)phenyl)-1H-1,2,3-triazole-4-carboxamide hydrochloride]
- Ki (rat TAAR1): 0.0293 µM
- Ki (mouse TAAR1): 0.0018 µM

Structure (SMILES): CCOc1ccc(-n2ncc(C(=O)Nc3ccc([C@H]4CNCCO4)cc3)n2)cc1 [Example 22, (S)-2-(4-Ethoxyphenyl)-N-(4-(morpholin-2-yl)phenyl)-2H-1,2,3-triazole-4-carboxamide hydrochloride]
- Ki (rat TAAR1): 0.001 µM
- Ki (mouse TAAR1): 0.0008 µM

Structure (SMILES): Cc1cccc(-n2ncc(C(=O)Nc3ccc([C@H]4CNCCO4)cc3)n2)c1 [Example 23, (S)—N-(4-(Morpholin-2-yl)phenyl)-2-m-tolyl-2H-1,2,3-triazole-4-carboxamide hydrochloride]
- Ki (rat TAAR1): 0.0005 µM
- Ki (mouse TAAR1): 0.0011 µM
